# Source: PubChem BioAssay (NCI)
#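 Step 1: Grow cells in 96-well plates. Step 2: Expose to compound for 48 hours at 5 concentrations. Step 3: Interpolate endpoints linearly; if unreached, use highest concentration. At the TGI there is no net growth.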
# Experiments:
# Assay in all cases: NCI tumour cell line growth inhibition, 48 h
# 786-0 renal = test system: 786-0 renal
# A498 renal = test system: A498 renal
# A549 NSCLC = test system: A549 NSCLC
# ACHN renal = test system: ACHN renal
# BT-549 breast = test system: BT-549 breast
# CAKI-1 renal = test system: CAKI-1 renal
# CCRF-CEM leukemia = test system: CCRF-CEM leukemia
# COLO 205 colon = test system: COLO 205 colon
# DU-145 prostate = test system: DU-145 prostate
# EKVX NSCLC = test system: EKVX NSCLC
# HCC-2998 colon = test system: HCC-2998 colon
# HCT-116 colon = test system: HCT-116 colon
# HL-60(TB) leukemia = test system: HL-60(TB) leukemia
# HOP-62 NSCLC = test system: HOP-62 NSCLC
# HOP-92 NSCLC = test system: HOP-92 NSCLC
# HS 578T breast = test system: HS 578T breast
# HT29 colon = test system: HT29 colon
# IGROV1 ovarian = test system: IGROV1 ovarian
# K-562 leukemia = test system: K-562 leukemia
# KM12 colon = test system: KM12 colon
# M14 melanoma = test system: M14 melanoma
# MALME-3M melanoma = test system: MALME-3M melanoma
# MCF7 breast = test system: MCF7 breast
# MDA-MB-231 breast = test system: MDA-MB-231 breast
# MDA-MB-435 = test system: MDA-MB-435
# MDA-N = test system: MDA-N
# MOLT-4 leukemia = test system: MOLT-4 leukemia
# NCI-H226 lung = test system: NCI-H226 lung
# NCI-H23 lung = test system: NCI-H23 lung
# NCI-H460 lung = test system: NCI-H460 lung
# NCI-H522 lung = test system: NCI-H522 lung
# OVCAR-3 ovarian = test system: OVCAR-3 ovarian
# OVCAR-4 ovarian = test system: OVCAR-4 ovarian
# OVCAR-5 ovarian = test system: OVCAR-5 ovarian
# OVCAR-8 ovarian = test system: OVCAR-8 ovarian
# PC-3 prostate = test system: PC-3 prostate
# RXF 393 renal = test system: RXF 393 renal
# SF-268 CNS = test system: SF-268 CNS
# SF-295 CNS = test system: SF-295 CNS
# SF-539 CNS = test system: SF-539 CNS
# SK-MEL-28 melanoma = test system: SK-MEL-28 melanoma
# SK-MEL-5 melanoma = test system: SK-MEL-5 melanoma
# SK-OV-3 ovarian = test system: SK-OV-3 ovarian
# SN12C renal = test system: SN12C renal
# SNB-19 CNS = test system: SNB-19 CNS
# SNB-75 CNS = test system: SNB-75 CNS
# SR leukemia = test system: SR leukemia
# SW-620 colon = test system: SW-620 colon
# T-47D breast = test system: T-47D breast
# TK-10 renal = test system: TK-10 renal
# U251 CNS = test system: U251 CNS
# UACC-257 melanoma = test system: UACC-257 melanoma
# UACC-62 melanoma = test system: UACC-62 melanoma
# UO-31 renal = test system: UO-31 renal
# HCT-15 colon = test system: HCT-15 colon
# LOX IMVI melanoma = test system: LOX IMVI melanoma
# NCI/ADR-RES ovarian = test system: NCI/ADR-RES ovarian
# RPMI-8226 leukemia = test system: RPMI-8226 leukemia
# SK-MEL-2 melanoma = test system: SK-MEL-2 melanoma
compound,measurement,setting,value
CCCCCCCC(CC(=O)NC(CO)C(=O)NC(CO)CC(C)C)OC(=O)CC(CCCCCCC)OC(=O)CC(CCCCCCC)OC1OC(C)C(O)C(OC2OC(C)C(OC(C)=O)C(O)C2O)C1O (centres undefined),TGI,786-0 renal,18.5 µM
same,TGI,A498 renal,23.5 µM
same,TGI,A549 NSCLC,23.8 µM
same,TGI,ACHN renal,29.2 µM
same,TGI,BT-549 breast,19.6 µM
same,TGI,CAKI-1 renal,29 µM
same,TGI,CCRF-CEM leukemia,14.2 µM
same,TGI,COLO 205 colon,9.14 µM
same,TGI,DU-145 prostate,24 µM
same,TGI,EKVX NSCLC,28.2 µM
same,TGI,HCC-2998 colon,17.2 µM
same,TGI,HCT-116 colon,17.9 µM
same,TGI,HL-60(TB) leukemia,9.2 µM
same,TGI,HOP-62 NSCLC,31.2 µM
same,TGI,HOP-92 NSCLC,21 µM
same,TGI,HS 578T breast,18.7 µM
same,TGI,HT29 colon,13 µM
same,TGI,IGROV1 ovarian,22.5 µM
same,TGI,K-562 leukemia,34.3 µM
same,TGI,KM12 colon,14.3 µM
same,TGI,M14 melanoma,13.8 µM
same,TGI,MALME-3M melanoma,23.9 µM
same,TGI,MCF7 breast,23.8 µM
same,TGI,MDA-MB-231 breast,20.4 µM
same,TGI,MDA-MB-435,19.4 µM
same,TGI,MDA-N,14 µM
same,TGI,MOLT-4 leukemia,12.2 µM
same,TGI,NCI-H226 lung,35.5 µM
same,TGI,NCI-H23 lung,22 µM
same,TGI,NCI-H460 lung,15.6 µM
same,TGI,NCI-H522 lung,24.7 µM
same,TGI,OVCAR-3 ovarian,24.2 µM
same,TGI,OVCAR-4 ovarian,19.4 µM
same,TGI,OVCAR-5 ovarian,21.7 µM
same,TGI,OVCAR-8 ovarian,23.3 µM
same,TGI,PC-3 prostate,16.2 µM
same,TGI,RXF 393 renal,16.9 µM
same,TGI,SF-268 CNS,23.3 µM
same,TGI,SF-295 CNS,24.3 µM
same,TGI,SF-539 CNS,23.4 µM
same,TGI,SK-MEL-28 melanoma,19.4 µM
same,TGI,SK-MEL-5 melanoma,21.8 µM
same,TGI,SK-OV-3 ovarian,29.8 µM
same,TGI,SN12C renal,18.6 µM
same,TGI,SNB-19 CNS,18.3 µM
same,TGI,SNB-75 CNS,16.3 µM
same,TGI,SR leukemia,6.22 µM
same,TGI,SW-620 colon,23.3 µM
same,TGI,T-47D breast,23.1 µM
same,TGI,TK-10 renal,29.8 µM
same,TGI,U251 CNS,14.7 µM
same,TGI,UACC-257 melanoma,12 µM
same,TGI,UACC-62 melanoma,19 µM
same,TGI,UO-31 renal,28.8 µM
CCOC(=O)CCC(NC(=O)c1ccc(Nc2nc3ccc(C(F)(F)F)cc3nc2-c2ccccc2)cc1)C(=O)OCC (centres undefined),TGI,786-0 renal,> 100 µM
same,TGI,A549 NSCLC,> 100 µM
same,TGI,ACHN renal,> 100 µM
same,TGI,BT-549 breast,> 100 µM
same,TGI,CAKI-1 renal,> 100 µM
same,TGI,CCRF-CEM leukemia,> 100 µM
same,TGI,COLO 205 colon,29.7 µM
same,TGI,DU-145 prostate,> 100 µM
same,TGI,EKVX NSCLC,> 100 µM
same,TGI,HCC-2998 colon,> 85.9 µM
same,TGI,HCT-116 colon,> 100 µM
same,TGI,HCT-15 colon,> 100 µM
same,TGI,HL-60(TB) leukemia,> 100 µM
same,TGI,HOP-62 NSCLC,> 100 µM
same,TGI,HOP-92 NSCLC,> 100 µM
same,TGI,HS 578T breast,85.1 µM
same,TGI,HT29 colon,> 100 µM
same,TGI,IGROV1 ovarian,> 100 µM
same,TGI,K-562 leukemia,> 100 µM
same,TGI,KM12 colon,> 100 µM
same,TGI,LOX IMVI melanoma,> 64.2 µM
same,TGI,M14 melanoma,46.2 µM
same,TGI,MALME-3M melanoma,76.8 µM
same,TGI,MCF7 breast,> 100 µM
same,TGI,MDA-MB-231 breast,58.9 µM
same,TGI,MDA-MB-435,> 100 µM
same,TGI,MDA-N,75.4 µM
same,TGI,MOLT-4 leukemia,77.8 µM
same,TGI,NCI-H226 lung,> 100 µM
same,TGI,NCI-H23 lung,> 100 µM
same,TGI,NCI-H460 lung,> 100 µM
same,TGI,NCI-H522 lung,55.2 µM
same,TGI,NCI/ADR-RES ovarian,> 100 µM
same,TGI,OVCAR-3 ovarian,76 µM
same,TGI,OVCAR-4 ovarian,> 100 µM
same,TGI,OVCAR-5 ovarian,> 100 µM
same,TGI,OVCAR-8 ovarian,> 100 µM
same,TGI,RPMI-8226 leukemia,> 100 µM
same,TGI,RXF 393 renal,> 100 µM
same,TGI,SF-268 CNS,> 100 µM
same,TGI,SF-295 CNS,> 100 µM
same,TGI,SF-539 CNS,> 100 µM
same,TGI,SK-MEL-2 melanoma,49.7 µM
same,TGI,SK-MEL-28 melanoma,> 100 µM
same,TGI,SK-MEL-5 melanoma,> 100 µM
same,TGI,SN12C renal,> 100 µM
same,TGI,SNB-19 CNS,> 100 µM
same,TGI,SNB-75 CNS,> 100 µM
same,TGI,SR leukemia,> 100 µM
same,TGI,SW-620 colon,> 100 µM
same,TGI,T-47D breast,60.4 µM
same,TGI,TK-10 renal,> 100 µM
same,TGI,U251 CNS,> 100 µM
same,TGI,UACC-257 melanoma,35.3 µM
same,TGI,UACC-62 melanoma,44.2 µM
same,TGI,UO-31 renal,> 87.2 µM
COc1c(=O)cc2cc[nH]c3cc[nH]c1c23,TGI,786-0 renal,> 100 µM
same,TGI,A498 renal,> 100 µM
same,TGI,A549 NSCLC,> 100 µM
same,TGI,ACHN renal,> 100 µM
same,TGI,BT-549 breast,> 100 µM
same,TGI,CAKI-1 renal,> 100 µM
same,TGI,CCRF-CEM leukemia,> 100 µM
same,TGI,COLO 205 colon,> 100 µM
same,TGI,DU-145 prostate,> 100 µM
same,TGI,EKVX NSCLC,> 100 µM
same,TGI,HCC-2998 colon,> 100 µM
same,TGI,HCT-116 colon,> 100 µM
same,TGI,HCT-15 colon,> 100 µM
same,TGI,HL-60(TB) leukemia,> 100 µM
same,TGI,HOP-92 NSCLC,> 100 µM
same,TGI,HS 578T breast,> 100 µM
same,TGI,HT29 colon,> 100 µM
same,TGI,IGROV1 ovarian,> 100 µM
same,TGI,K-562 leukemia,> 100 µM
same,TGI,KM12 colon,> 100 µM
same,TGI,LOX IMVI melanoma,> 100 µM
same,TGI,M14 melanoma,> 100 µM
same,TGI,MALME-3M melanoma,> 100 µM
same,TGI,MCF7 breast,92.6 µM
same,TGI,MDA-MB-231 breast,> 100 µM
same,TGI,MDA-MB-435,> 100 µM
same,TGI,MDA-N,> 100 µM
same,TGI,MOLT-4 leukemia,> 100 µM
same,TGI,NCI-H226 lung,> 100 µM
same,TGI,NCI-H23 lung,> 100 µM
same,TGI,NCI-H460 lung,> 100 µM
same,TGI,NCI-H522 lung,12.1 µM
same,TGI,NCI/ADR-RES ovarian,> 100 µM
same,TGI,OVCAR-3 ovarian,47.8 µM
same,TGI,OVCAR-4 ovarian,> 100 µM
same,TGI,OVCAR-5 ovarian,> 100 µM
same,TGI,OVCAR-8 ovarian,> 100 µM
same,TGI,PC-3 prostate,> 100 µM
same,TGI,RPMI-8226 leukemia,> 100 µM
same,TGI,RXF 393 renal,> 100 µM
same,TGI,SF-295 CNS,> 100 µM
same,TGI,SK-MEL-2 melanoma,> 100 µM
same,TGI,SK-MEL-28 melanoma,> 100 µM
same,TGI,SK-MEL-5 melanoma,> 100 µM
same,TGI,SK-OV-3 ovarian,> 100 µM
same,TGI,SN12C renal,> 100 µM
same,TGI,SNB-19 CNS,> 100 µM
same,TGI,SR leukemia,> 100 µM
same,TGI,SW-620 colon,> 100 µM
same,TGI,TK-10 renal,> 100 µM
same,TGI,U251 CNS,> 100 µM
same,TGI,UACC-257 melanoma,> 100 µM
same,TGI,UACC-62 melanoma,> 100 µM
same,TGI,UO-31 renal,> 100 µM
